For 14 molecules, selectivity ratio and IC50 results are on record in ChEMBL document CHEMBL5385857, “Optimization and SAR research at the benzoxazole and tetrazole rings of JNJ4796 as new anti-influenza A virus agents, part 2” (Eur J Med Chem, 2023).

Data set [1] in a line: Selectivity index, ratio of CC50 for MDCK cells to IC50 for oseltamivir-resistant influenza A virus H1N1 clinical isolate IAV/Tianjin Jinnan/15/2009 infected in MDCK cells. Type of data set: toxicity, cell-based. The note with it: dog, read-out: Ratio CC50/IC50.
In data set [2] the test system is Influenza A virus. In words: Antiviral activity against oseltamivir-resistant influenza A virus H1N1 clinical isolate IAV/Tianjin Jinnan/15/2009 infected in MDCK cells. Type of data set: functional, organism-based. The note with it: H1N1(IAV/Tianjin Jinnan/15/2009).

Broadly, the IC50 is the concentration that gives 50% inhibition. Regarding `CCC(CC)n1nnc([C@H](c2ccc(F)cc2)N2CCN(C(=O)c3cc(-c4nc5cc(NC(C)=O)ccc5o4)ccn3)CC2)n1`, the selectivity ratio in data set [1] is over 104. The IC50 in data set [2] amounted to 960 nM.

In the case of `CCCCn1nnc([C@H](c2ccc(F)cc2)N2CCN(C(=O)c3cc(-c4nc5cc(NC(C)=O)ccc5o4)ccn3)CC2)n1`, the selectivity ratio in data set [1] is over 20. Further, the IC50 in data set [2] was found to be 4850 nM.

For the molecule `CC(=O)Nc1ccc2oc(-c3ccnc(C(=O)N4CCN([C@@H](c5ccc(F)cc5)c5nnn(C6CCCC6)n5)CC4)c3)nc2c1`, the selectivity ratio in data set [1] amounted to 39. For the same molecule, half-maximal inhibition in data set [2] (IC50) required 2460 nM.

As to `CC(=O)Nc1ccc2oc(-c3ccnc(C(=O)N4CCN([C@@H](c5ccc(F)cc5)c5nnn(C(C)C)n5)CC4)c3)nc2c1`, the selectivity ratio in data set [1] is over 43. This molecule gave an IC50 in data set [2] of 2290 nM.

As for `CC(=O)Nc1ccc2oc(-c3ccnc(C(=O)N4CCN([C@@H](c5ccc(F)cc5)c5nnn(CCC(C)C)n5)CC4)c3)nc2c1`, the selectivity ratio in data set [1] was over 8. Further, the midpoint of inhibition in data set [2], the IC50, lay at 11700 nM.

In the case of `CCC(CC)n1nnc([C@@H](c2ccc(F)cc2)N2CCN(C(=O)c3cc(-c4nc5cc(NC(C)=O)ccc5o4)ccn3)CC2)n1`, the selectivity ratio in data set [1] is over 454. In data set [2], the IC50 was determined as 220 nM.

As to `CC(=O)Nc1ccc2oc(-c3ccnc(C(=O)N4CCN([C@H](c5ccc(F)cc5)c5nnn(C(C)C)n5)CC4)c3)nc2c1`, the selectivity ratio in data set [1] was over 1430. 70 nM corresponded to half-maximal inhibition in data set [2] (IC50).

As for `CC(=O)Nc1ccc2oc(-c3ccnc(C(=O)N4CCN([C@H](c5ccc(F)cc5)c5nnn(CCC(C)C)n5)CC4)c3)nc2c1`, in data set [1], the selectivity ratio is over 136. For the same molecule, in data set [2], the IC50 was determined as 730 nM.

With `CC(=O)Nc1ccc2oc(-c3ccnc(C(=O)N4CCN([C@H](c5ccccc5)c5nnn(C(C)C)n5)CC4)c3)nc2c1`, the selectivity ratio in data set [1] was over 1430. Moreover, in data set [2], it took 70 nM to reach half-maximal inhibition (IC50).

On to `CC(=O)Nc1ccc2oc(-c3ccnc(C(=O)N4CCN([C@H](c5ccc(F)cc5)c5nnn(C6CCCC6)n5)CC4)c3)nc2c1`, for which the selectivity ratio in data set [1] turned out to be 198. In addition, the midpoint of inhibition in data set [2], the IC50, lay at 440 nM.

Turning to `CC(=O)Nc1ccc2oc(-c3ccnc(C(=O)N4CCN([C@@H](c5ccccc5)c5nnn(C(C)C)n5)CC4)c3)nc2c1`, the selectivity ratio in data set [1] was over 66. Also, the IC50 in data set [2] came to 1510 nM.

For the molecule `C=Cn1nnc([C@@H](c2ccc(F)cc2)N2CCN(C(=O)c3cc(-c4nc5cc(NC(C)=O)ccc5o4)ccn3)CC2)n1`, the selectivity ratio in data set [1] is over 196. In data set [2], the IC50 is 90 nM.

On to `C=Cn1nnc([C@H](c2ccc(F)cc2)N2CCN(C(=O)c3cc(-c4nc5cc(NC(C)=O)ccc5o4)ccn3)CC2)n1`, for which, in data set [1], the selectivity ratio is over 14.5. The molecule further gave an IC50 in data set [2] of 6860 nM.

With `CCCCn1nnc([C@@H](c2ccc(F)cc2)N2CCN(C(=O)c3cc(-c4nc5cc(NC(C)=O)ccc5o4)ccn3)CC2)n1`, the selectivity ratio in data set [1] is over 454. Moreover, the IC50 in data set [2] was determined as 220 nM.
